Test results reported in patent publication EP3750528A1, “COMPOSITIONS FOR TREATING DYSTROPHIES AND MYOTONIA” (Nexien Biopharma, Inc., priority 2019, dated 2020).

Tests used:
dystrophic mdx mice = conditions: injection; mostly via activation of TRPV1 and TRPA1; cited from earlier work
myotonia and myalgia = test: Previous treatments for myotonia and myalgia (case history)
[1] = Patient 2 (DM2), suspended also for risk of cardiac arrhythmias
[2] = Patient 6 (CLCN1-congenital myotonia)

## C=C(C)[C@@H]1CCC(C)=C[C@H]1c1c(O)cc(CCCCC)cc1O [CBD, cannabidiol]
Dystrophic mdx mice
  effect in dystrophic mdx mice: promoted myotube formation and reduced inflammation

## NC(=O)N1c2ccccc2C=Cc2ccccc21 [carbamazepine]
Myotonia and myalgia; [1]
  myotonia under previous treatment: inefficacy
Myotonia and myalgia; [2]
  myotonia under previous treatment: no relevant improvement of myotonia

## O=C(NCC1CCCCN1)c1cc(OCC(F)(F)F)ccc1OCC(F)(F)F (stereo not shown) [flecainid]
Myotonia and myalgia; [2]
  myotonia under previous treatment: no relevant improvement of myotonia

## CC(C)Cc1ccc(C(C)C(=O)O)cc1 (stereo not shown) [ibuprofen]
Myotonia and myalgia; Patient 2 (DM2)
  myalgia under previous treatment: unsuccessfully treated

## Nc1nnc(-c2cccc(Cl)c2Cl)c(N)n1 [lamotrigine]
Myotonia and myalgia; [2]
  myotonia under previous treatment: no relevant improvement of myotonia

## COc1ccccc1OCC(O)COC(N)=O (stereo not shown) [methocarbamol]
Myotonia and myalgia; Patient 2 (DM2)
  myalgia under previous treatment: unsuccessfully treated

## Cc1cccc(C)c1OCC(C)N (stereo not shown) [mexiletine]
Myotonia and myalgia; [1]
  myotonia under previous treatment: inefficacy
Myotonia and myalgia; [2]
  myotonia under previous treatment: improved the myotonia
Myotonia and myalgia; Patient 6, resolved on drug discontinuation
  drug-related side effect of previous treatment: severe major depression

## CC(C)C[C@H](CN)CC(=O)O [pregabalin]
Myotonia and myalgia; Patient 2 (DM2)
  myalgia under previous treatment: unsuccessfully treated
Myotonia and myalgia; [1]
  myotonia under previous treatment: inefficacy

## Cc1ccc(C(=O)C(C)CN2CCCCC2)cc1 (stereo not shown) [tolperisone]
Myotonia and myalgia; [2]
  myotonia under previous treatment: no relevant improvement of myotonia
